A word on the EC50: it is the midpoint of the concentration-response curve. Read a low EC50 as higher potency in that assay.

The first assay concerns the target α1β2γ2 GABAA receptor (Homo sapiens (Human), UniProt P14867+P47870).
Settings: not given
On to `C[C@@H]1COCCN1CC(=O)[C@H]1CC[C@H]2[C@@H]3CC[C@@H]4C[C@](C)(O)CC[C@@H]4[C@H]3CC[C@]12C` [Entry 3], for which the EC50 was over 2 µM.

Staying with this assay, now noted: LTK, read-out: GABA (α1β2γ2) Qpatch in Ltk, % efficacy at 10 μM, Qpatch, Ltk cells, 10 μM compound, 2 μM GABA.
As to `CC[C@@]1(O)CC[C@H]2[C@H](CC[C@@H]3[C@@H]2CC[C@]2(C)[C@@H](C(=O)CN4CCN(S(C)(=O)=O)CC4)CC[C@@H]32)C1` [Entry 34], the Emax at 10 µM fell in the range of 100 to 500%.
Take `CC(=O)N1CCN(CC(=O)[C@H]2CC[C@H]3[C@@H]4CC[C@H]5C[C@](C)(O)CC[C@@H]5[C@H]4CC[C@]23C)CC1` [Entry 10]: the Emax at 10 µM was 100 to 500%.
`C[C@@H]1CN(CC(=O)[C@H]2CC[C@H]3[C@@H]4CC[C@@H]5C[C@](C)(O)CC[C@@H]5[C@H]4CC[C@]23C)CCO1` [Entry 6]: the Emax at 10 µM lay in the range of 100 to 500%.
As for `C[C@]12CC[C@H]3[C@@H](CC[C@@H]4C[C@@](O)(C(F)F)CC[C@@H]43)[C@@H]1CC[C@@H]2C(=O)CN1CCN(S(C)(=O)=O)CC1` [Entry 56], the Emax at 10 µM was 100 to 500%.
For the molecule `CC(=O)N1CCN(CC(=O)[C@H]2CC[C@H]3[C@@H]4CC[C@H]5C[C@](C)(O)[C@H](C)C[C@@H]5[C@H]4CC[C@]23C)CC1` [Entry 26], the Emax at 10 µM fell in the range of 100 to 500%.
Consider `C[C@@H]1C[C@H]2[C@@H](CC[C@@H]3[C@@H]2CC[C@]2(C)[C@@H](C(=O)CN4CCOCC4)CC[C@@H]32)C[C@]1(C)O` [Entry 47], for which the Emax at 10 µM was 10 to 100%.
Turning to `COC[C@@]1(O)CC[C@H]2[C@H](CC[C@@H]3[C@@H]2CC[C@]2(C)[C@@H](C(=O)CN4CCN(S(C)(=O)=O)CC4)CC[C@@H]32)C1` [Entry 30], the Emax at 10 µM was over 500%.
The same measure, in the same setting: the result for `C[C@]12CC[C@H]3[C@@H](CC[C@@H]4C[C@@](O)(CF)CC[C@@H]43)[C@@H]1CC[C@@H]2C(=O)CN1CCN(S(C)(=O)=O)CC1` [Entry 32] reads over 500%; that for `C[C@]12CC[C@H]3[C@@H](CC[C@@H]4C[C@@](O)(CF)CC[C@@H]43)[C@@H]1CC[C@@H]2C(=O)CN1CCOCC1` [Entry 55], 10 to 100%; that for `C[C@@H]1COCCN1CC(=O)[C@H]1CC[C@H]2[C@@H]3CC[C@@H]4C[C@](C)(O)CC[C@@H]4[C@H]3CC[C@]12C` [Entry 7], 100 to 500%.

The assay is the same for the next values; noted with them: LTK, read-out: GABAa alpha1 (α1β2γ2) Emax (%), potentiation of GABA EC20 (2 μM) current.
On to `C[C@@H]1COCCN1CC(=O)[C@H]1CC[C@H]2[C@@H]3CC[C@@H]4C[C@](C)(O)CC[C@@H]4[C@H]3CC[C@]12C` [Entry 3], for which the Emax was 0 to 500%.

The assay is the same for the next values; noted with them: Qpatch, Ltk cells, 10 μM compound, 2 μM GABA.
On to `COC[C@@]1(O)CC[C@H]2[C@@H](CC[C@@H]3[C@@H]2CC[C@]2(C)[C@@H](C(=O)CN4CCN(S(C)(=O)=O)CC4)CC[C@@H]32)C1` [Entry 57], for which the “GABA (α1β2γ2) Qpatch in Ltk, % efficacy at 10 μM” value is “C (“C” ≥500)”.

These data come from US11912737B2, “19-nor neuroactive steroids and methods of use thereof” (Sage Therapeutics, Inc., priority 2013, dated 2024).
